Laboratory results as given in patent US20060173015A1, “Cyclohexyldiamines as selective alpha 1a/1d adrenoreceptor antagonists for the treatment of benign prostatic hypertrophy and lower urinary tract symptoms” (priority 2004, published 2006).

Legend:
[1] = target: T1, α1b-AR (Homo sapiens, UniProt P35368); experiment: α1-Adrenergic receptor radio-ligand (125I-HEAT) binding assay, α1b subtype; conditions: Receptor Binding, Ki α1b-AR, COS-7 cell membranes, 125I-HEAT
T1 sequence (P35368 1-520): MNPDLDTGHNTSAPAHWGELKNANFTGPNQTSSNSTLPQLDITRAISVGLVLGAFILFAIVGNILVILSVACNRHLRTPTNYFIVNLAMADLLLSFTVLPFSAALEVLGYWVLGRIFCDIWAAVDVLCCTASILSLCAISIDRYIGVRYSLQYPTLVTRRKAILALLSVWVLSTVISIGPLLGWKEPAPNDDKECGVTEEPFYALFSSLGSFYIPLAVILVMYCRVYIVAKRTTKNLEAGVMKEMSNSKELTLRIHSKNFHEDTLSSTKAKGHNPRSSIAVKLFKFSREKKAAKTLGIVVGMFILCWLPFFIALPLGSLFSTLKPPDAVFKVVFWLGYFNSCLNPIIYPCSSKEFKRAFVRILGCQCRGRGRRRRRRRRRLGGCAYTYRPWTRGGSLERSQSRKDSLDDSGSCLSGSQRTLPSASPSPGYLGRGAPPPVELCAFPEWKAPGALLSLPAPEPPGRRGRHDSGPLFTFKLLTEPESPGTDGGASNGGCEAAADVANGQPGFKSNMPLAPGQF

[2] = target: T2, α1a-AR (Homo sapiens, UniProt P35348); experiment: α1-Adrenergic receptor radio-ligand (125I-HEAT) binding assay, α1a subtype; conditions: COS-7 cell membranes, 125I-HEAT
T2 construct: expressed in transfected cells; host or cells: COS-7
T2 sequence (P35348 1-466): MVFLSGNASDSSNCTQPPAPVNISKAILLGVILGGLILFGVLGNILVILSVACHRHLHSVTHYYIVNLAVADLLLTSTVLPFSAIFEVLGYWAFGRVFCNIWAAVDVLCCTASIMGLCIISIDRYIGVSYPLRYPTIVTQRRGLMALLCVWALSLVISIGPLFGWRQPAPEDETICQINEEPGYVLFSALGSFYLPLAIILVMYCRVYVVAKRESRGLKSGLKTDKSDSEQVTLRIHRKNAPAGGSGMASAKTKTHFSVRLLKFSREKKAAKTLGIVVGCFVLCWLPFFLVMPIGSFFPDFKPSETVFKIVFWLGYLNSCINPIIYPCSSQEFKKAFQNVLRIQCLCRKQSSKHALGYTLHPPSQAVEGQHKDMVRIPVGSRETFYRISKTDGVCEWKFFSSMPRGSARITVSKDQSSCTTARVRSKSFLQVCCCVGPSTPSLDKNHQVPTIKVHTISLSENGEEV
Procedure: α1-Adrenergic Receptor Binding Assay: Preparation of COS Cell Membranes
Membranes were prepared from COS-7 cells that had been transfected with one of the three α1-AR subtypes by the following method. COS cells from ten 100 mm tissue culture plates were scraped into 5 mL TE (50 mM Tris-HCl, 5 mM EDTA, pH 7.4). The cell suspension was disrupted with a Brinkman Polytron, setting 8, for 10 sec. The disrupted cells were centrifuged at 1000×g for 10 min at 4° C. Supernatants were centrifuged at 34,500×g for 20 min at 4° C. The membrane pellets were suspended in 2 mL TNE (50 mM Tris-HCl, 5 mM EDTA, 150 mM NaCl, pH7.4). An aliquot of the membrane suspension was stored at −70° C. until use. The protein concentration was determined using the BioRad DC protein assay kit following membrane solubilization with Triton X-100.
Radio-Ligand Binding Assay
Triplicate determinations of radio-ligand binding in the presence of increasing: concentrations of testing compound were made. The reagents were added to 96-well polypropylene plate wells using the Biomek 1000 robot (Beckman Instruments). Each assay well contained 140 μl TNE, 25 μL ^125I-HEAT (specific activity 2200 Ci/mmol, Dupont-NEN, 50 pM final), 10 μL testing compound dissolved in DMSO (1 pM to 10 μM in half-log increments, final), and 25 μL appropriate α1-AR membrane subtype suspension in TNE (0.5 ng/μL for the α1a and α1b subtypes and 13 ng/μL for the α1d subtype). The plate was incubated at rt for 1 hr. The contents of the wells were filtered through a GF/C membrane Unifilter plate (Packard Instruments) using the Packard Filtermate cell harvester. The filter plates were dried in a vacuum oven for 30 min at 40° C. 25 μL Microscint 20 liquid scintillation fluid (Packard Instuments) was added to each well. The radioactive content was analyzed in the TopCount microplate scintillation counter (Packard Instruments).

[3] = target: T3, α1d-AR (Homo sapiens, UniProt P25100); experiment: α1-Adrenergic receptor radio-ligand (125I-HEAT) binding assay, α1d subtype; conditions: COS-7 cell membranes, 125I-HEAT; read-out: Receptor Binding, Ki α1d-AR
T3 construct: expressed in transfected cells; host or cells: COS-7
T3 sequence (P25100 1-572): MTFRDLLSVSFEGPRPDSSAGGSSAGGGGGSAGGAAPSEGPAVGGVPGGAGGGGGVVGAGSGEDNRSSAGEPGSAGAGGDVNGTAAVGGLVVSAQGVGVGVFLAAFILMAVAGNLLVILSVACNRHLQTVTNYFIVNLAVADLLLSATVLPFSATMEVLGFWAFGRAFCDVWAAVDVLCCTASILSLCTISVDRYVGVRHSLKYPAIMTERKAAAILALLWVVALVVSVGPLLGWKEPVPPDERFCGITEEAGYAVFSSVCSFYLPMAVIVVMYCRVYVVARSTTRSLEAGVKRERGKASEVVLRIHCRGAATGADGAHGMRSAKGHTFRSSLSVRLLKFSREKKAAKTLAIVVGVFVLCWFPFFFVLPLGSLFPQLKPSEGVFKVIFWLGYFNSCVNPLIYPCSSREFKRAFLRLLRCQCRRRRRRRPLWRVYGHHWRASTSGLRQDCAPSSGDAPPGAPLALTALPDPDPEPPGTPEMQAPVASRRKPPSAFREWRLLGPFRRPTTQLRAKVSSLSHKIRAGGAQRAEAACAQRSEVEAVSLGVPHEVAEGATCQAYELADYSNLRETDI

Row | SMILES | Ki [1] [nM] | Ki [2] [nM] | Ki [3] [nM]
1 | CC(C)Oc1ccccc1N1CCN([C@H]2CC[C@H](NS(=O)(=O)c3ccccc3)CC2)CC1 [Cpd 53] | 487 | 2.7 | 55
2 | CC(C)Oc1ccccc1N1CCN([C@H]2CC[C@H](NS(=O)(=O)c3ccccc3[N+](=O)[O-])CC2)CC1 [Cpd 54] | 236 | 1 | 27
3 | CC(C)Oc1ccccc1N1CCN([C@H]2CC[C@@H](NS(=O)(=O)c3cccnc3)CC2)CC1 [Cpd 59, Pyridine-3-sulfonic acid N-cis-{4-[4-(2-isopropoxy-phenyl)-piperazin-1-yl]-cyclohexyl}-amide] | 400 | 5 | 46
4 | COc1ccncc1S(=O)(=O)N[C@H]1CC[C@@H](N2CCN(c3ccccc3OC(C)C)CC2)CC1 [Cpd 60, 4-Methoxy-pyridine-3-sulfonic acid N-cis-{4-[4-(2-isopropoxy-phenyl)-piperazin-1-yl]-cyclohexyl}-amide] | 169 | 4.9 | 9.4
5 | CC(C)Oc1ccccc1N1CCN([C@H]2CC[C@H](NS(=O)(=O)Cc3ccccc3)CC2)CC1 [Cpd 62, N-trans-{4-[4-(2-Isopropoxy-phenyl)-piperazin-1-yl]-cyclohexyl}-C-phenyl-methanesulfonamide] | 200 | 3.9 | 12
6 | CC(C)Oc1ccccc1N1CCN([C@H]2CC[C@H](NS(=O)(=O)c3cccnc3)CC2)CC1 [Cpd 64, Pyridine-3-sulfonic acid N-trans-{4-[4-(2-isopropoxy-phenyl)-piperazin-1-yl]-cyclohexyl}-amide] | 192 | 5.8 | 5.5
7 | COc1ccncc1S(=O)(=O)N[C@H]1CC[C@H](N2CCN(c3ccccc3OC(C)C)CC2)CC1 [Cpd 65, 4-Methoxy-pyridine-3-sulfonic acid N-trans-{4-[4-(2-isopropoxy-phenyl)-piperazin-1-yl]-cyclohexyl}-amide] | 268 | 13.4 | 76
8 | CC(C)Oc1ccccc1N1CCN([C@H]2CC[C@H](NS(=O)(=O)c3cnc(Cl)c(Br)c3)CC2)CC1 [Cpd 66, 5-Bromo-6-chloro-pyridine-3-sulfonic acid N-trans-{4-[4-(2-isopropoxy-phenyl)-piperazin-1-yl]-cyclohexyl}-amide] | 279 | 3.5 | 14.6
9 | CCN([C@H]1CC[C@@H](N2CCN(c3ccccc3OC(C)C)CC2)CC1)S(=O)(=O)c1ccc(OC)c(OC)c1 [Cpd 67, N-Ethyl-N-cis-{4-[4-(2-isopropoxy-phenyl)-piperazin-1-yl]-cyclohexyl}-3,4-dimethoxy-benzenesulfonamide] | 326 | 15 | 22
10 | COc1ccc(S(=O)(=O)N[C@H]2CC[C@@H](N3CCN(c4ccc(F)cc4OC(C)C)CC3)CC2)cc1OC [Cpd 71, N-cis-{4-[4-(4-Fluoro-2-isopropoxy-phenyl)-piperazin-1-yl]-cyclohexyl}-3,4-dimethoxy-benzenesulfonamide] | 711 | 14.9 | 5.9
11 | COc1ccc(S(=O)(=O)N[C@H]2CC[C@H](N3CCN(c4ccc(F)cc4OC(C)C)CC3)CC2)cc1OC [Cpd 72, N-trans-{4-[4-(4-Fluoro-2-isopropoxy-phenyl)-piperazin-1-yl]-cyclohexyl}-3,4-dimethoxy-benzenesulfonamide] | 146 | 9 | 12.2

Stronger by Ki [1], values ahead:

Row | Ki [1] [nM] | Ki [2] [nM] | Ki [3] [nM] | SMILES
12 | 82 | 1.2 | 3.6 | CC(C)Oc1ccccc1N1CCN([C@H]2CC[C@@H](NS(=O)(=O)Cc3ccccc3)CC2)CC1 [Cpd 57, N-cis-{4-[4-(2-Isopropoxy-phenyl)-piperazin-1-yl]-cyclohexyl}-C-phenyl-methanesulfonamide]
13 | 116 | 8.3 | 4.3 | CC(C)Oc1ccccc1N1CCN([C@H]2CC[C@@H](NS(=O)(=O)c3cccc4cccnc34)CC2)CC1 [Cpd 58, Quinoline-8-sulfonic acid N-cis-{4-[4-(2-isopropoxy-phenyl)-piperazin-1-yl]-cyclohexyl}-amide]
14 | 125 | 14.4 | 0.14 | CC(C)Oc1ccccc1N1CCN([C@H]2CC[C@@H](NS(=O)(=O)c3cnc(Cl)c(Br)c3)CC2)CC1 [Cpd 61, 5-Bromo-6-chloro-pyridine-3-sulfonic acid N-cis-{4-[4-(2-isopropoxy-phenyl)-piperazin-1-yl]-cyclohexyl}-amide]
15 | 77.6 | 0.5 | 22.1 | CC(C)Oc1ccccc1N1CCN([C@H]2CC[C@H](NS(=O)(=O)c3cccc4cccnc34)CC2)CC1 [Cpd 63, Quinoline-8-sulfonic acid N-trans-{4-[4-(2-isopropoxy-phenyl)-piperazin-1-yl]-cyclohexyl}-amide]
16 | 109 | 23 | 6.7 | CCN([C@H]1CC[C@H](N2CCN(c3ccccc3OC(C)C)CC2)CC1)S(=O)(=O)c1ccc(OC)c(OC)c1 [Cpd 68, N-Ethyl-N-trans-{4-[4-(2-isopropoxy-phenyl)-piperazin-1-yl]-cyclohexyl}-3,4-dimethoxy-benzenesulfonamide]
17 | 34.8 | 54.2 | 8.3 | COc1ccc(S(=O)(=O)N[C@H]2CC[C@H](N3CCN(c4ccccc4OCC(F)(F)F)CC3)CC2)cc1OC [Cpd 70]
18 | 81 | 598 | 134 | COc1ccc(Cl)cc1S(=O)(=O)N[C@H]1CC[C@@H](N2CCN(c3ccc(F)cc3OC(C)C)CC2)CC1 [Cpd 73, 5-Chloro-N-cis-{4-[4-(4-fluoro-2-isopropoxy-phenyl)-piperazin-1-yl]-cyclohexyl}-2-methoxy-benzenesulfonamide]
19 | 101 | 5.6 | 2.2 | CC(C)Oc1cc(F)ccc1N1CCN([C@H]2CC[C@@H](NS(=O)(=O)c3cc(Cl)ccc3F)CC2)CC1 [Cpd 74, 5-Chloro-2-fluoro-N-cis-{4-[4-(4-fluoro-2-isopropoxy-phenyl)-piperazin-1-yl]-cyclohexyl}-benzenesulfonamide]
